Test results reported in paper PMC10290137, “Systems-level analyses of protein-protein interaction network dysfunctions via epichaperomics identify cancer-specific mechanisms of stress adaptation” (Nature Communications, 2023).
Read-outs that look alike come from different tables or passages of the source.

Assays:
HSC70 [1] = tested on: T1, HSC70; assay: CETSA in MDA-MB-468 cells and homogenates; the value is the IC50 for epiHSP70s disruption in cancer cells; assay type: cell-based
T1 construct: gene HSPA8; endogenous epiHSP70 epichaperome assemblies in human cancer cells (probably MDA-MB-468); HSC70/HSP70 pool, no recombinant construct
Source text: CETSA in MDA-MB-468 cells and homogenates; the value is the IC50 for epiHSP70s disruption in cancer cells (b12) on HSC70 | three evaluated YKs—YK5, YK198 and LSI137—we observed in CETSA, performed both in cells and cell homogenates, a significant thermal stabilization

HSC70 [2] = molecular target: T2, HSC70 (Homo sapiens, UniProt P11142); assay: reconstituted purified HSC70: fluorescence anisotropy peptide release ([…] YK198) and stopped-flow MABA-ATP binding ([…]); also CETSA; assay type: biochemical
T2 construct: gene HSPA8

HSC70 [3] = tested on: T1, HSC70; assay: CETSA in MDA-MB-468 cells and homogenates; the value is the IC50 for epiHSP70s disruption in cancer cells; assay type: cell-based; remark: listed apart in the source

T2 sequence (P11142 2-646): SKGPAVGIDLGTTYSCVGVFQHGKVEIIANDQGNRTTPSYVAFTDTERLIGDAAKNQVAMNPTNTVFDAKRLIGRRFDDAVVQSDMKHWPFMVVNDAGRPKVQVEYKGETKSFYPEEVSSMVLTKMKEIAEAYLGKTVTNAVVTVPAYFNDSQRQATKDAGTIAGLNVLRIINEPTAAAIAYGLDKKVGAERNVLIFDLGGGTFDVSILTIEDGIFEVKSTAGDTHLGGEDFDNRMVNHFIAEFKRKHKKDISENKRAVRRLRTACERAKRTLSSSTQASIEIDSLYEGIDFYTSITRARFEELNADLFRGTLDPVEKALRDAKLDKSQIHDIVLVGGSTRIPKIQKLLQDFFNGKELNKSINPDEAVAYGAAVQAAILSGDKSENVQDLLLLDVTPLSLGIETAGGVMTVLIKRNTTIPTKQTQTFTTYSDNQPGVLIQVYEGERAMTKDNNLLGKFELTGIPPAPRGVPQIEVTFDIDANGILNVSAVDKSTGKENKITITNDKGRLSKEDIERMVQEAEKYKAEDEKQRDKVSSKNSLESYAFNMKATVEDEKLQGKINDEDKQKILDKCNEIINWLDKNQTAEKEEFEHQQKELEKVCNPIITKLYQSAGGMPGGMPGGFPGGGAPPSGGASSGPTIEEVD

With `C=CC(=O)Nc1cc(N)nc(Sc2c(OC)nc(N3CCN(C)CC3)nc2OC)n1` [YK5] the IC50 (HSC70 [1]) was 5 µM.
For `CN1CCN(c2ncc(Sc3ccc(N)nc3)c(OCc3ccccc3)n2)CC1` [YK198], the “reconstituted purified HSC70: fluorescence anisotropy peptide release (100 uM YK)” value (HSC70 [2]) was “biochemical effect of YKs on HSP70s manifests majorly at the allosteric release of the interactor protein, impairing its release”.
`COc1cccc(COc2nc(N3CCC(N(C)C)C3)ncc2Sc2ccc(N)nc2)c1` (stereo not drawn) [LSI137] gave an IC50 (HSC70 [3]) of 0.06 µM.
